Consider two compounds from patent US12247223B2, “Human liver-like three-dimensional structure, method for evaluating hepatotoxicity and human liver-like complex” (CYFUSE BIOMEDICAL K.K., priority 2019, dated 2025).

The structures appear in SMILES notation.

The test system of series [1] is human liver-like three-dimensional construct A′. Conditions: 10 μmol/l. The procedure: A DMSO solution of phenytoin was prepared. The obtained drug-containing DMSO solution was added to the culture medium of the human liver-like three-dimensional construct A′ fabricated in Experimental example 3′ such that the concentration of the drug in the medium was 10 μmol/l. The medium was sampled up to 6 days following the drug addition, and the metabolic products in the medium were subjected to separation and structural analysis by a LC/MS/MS method. The abbreviations of the metabolites stand for the following constructs.
A DMSO solution of Torcetrapib was prepared. The obtained drug-containing DMSO solution was added to the culture medium of the human liver-like three-dimensional construct A′ fabricated in Experimental example 3′ such that the concentration of the drug in the medium was 10 μmol/l. The medium was sampled up to 6 days following the drug addition, and the metabolic products in the medium were subjected to separation and structural analysis by a LC/MS/MS method.

Series [2] concerns human liver-like three-dimensional construct A. Put plainly: Number and particle-size distribution of exosome particles (qNano). Format: cell-based. As to conditions: three days after drug addition. The procedure:
The culture medium of Experimental example 5 was centrifuged at 4° C. and 2,000×g for 20 minutes, followed by centrifugation of the collected supernatant at 15,000×g for 30 minutes. To 2.2 mL of each collected sample solution, 1.1 mL of ExoCap Ultracentrifugation/Storage Booster (registered trademark) and 7.7 mL of ultrapure water were added. The resultant was homogeneously stirred and subjected to ultracentrifugation protocol (35,000 rpm, 70 minutes,4° C.). […]
(§1) The number and the particle-size distribution of the exosome particles were measured using qNano (nanoparticle multi-analyzer). In addition, expression of CD9 in the collected exosomes was confirmed by Western blotting. miRNAs contained in a sample extracted from the exosomes using a RNA extraction kit were measured by digital PCR. Furthermore, microRNAs contained in the exosomes were taken out and the amounts of miR-122, miR-192 and miR-1 were quantified by a quantitative PCR method. […]
An increase in the particle number concentration of the exosomes contained in the media was observed only three days after the drug addition. Furthermore, miR-122 was detected in the collected exosomes.

For series [3] the test system is unchanged. The series can be described thus: miR-122-5p in exosomes released from the construct, digital PCR. Format: cell-based. Conditions: exosomes from culture medium of Experimental example 5. The procedure:
(§2) A DMSO solution of trovafloxacin, a drug that is known to show hepatotoxicity when administered to a human, was prepared. […] Changes in the albumin concentrations in the media up to 24 days following addition of the drug, and the levels of ATP contained in the constructs at the end of the experiment were measured using CellTiter-Glo 3D substrate. Furthermore, tissue sections of the constructs were prepared to obtain images of HE staining and immunostaining for albumin.
The culture medium of Experimental example 5 was centrifuged at 4° C. and 2,000×g for 20 minutes, followed by centrifugation of the collected supernatant at 15,000×g for 30 minutes. To 2.2 mL of each collected sample solution, 1.1 mL of ExoCap Ultracentrifugation/Storage Booster (registered trademark) and 7.7 mL of ultrapure water were added. […]
as §1

Series [4] shares this test system. The series can be described thus: Assessment of hepatotoxicity: albumin concentration in the medium of the construct. The format is cell-based. Conditions: drug 5-1000 μmol/l in medium, up to 24 days. The procedure: as §2
DMSO solutions of 20 kinds of drugs that were known to show hepatotoxicity upon administration to a human were prepared. […] Changes in the albumin concentrations in the media 7 and 14 days following addition of the drug are shown in FIG. 8, in which data were normalized to the albumin concentration in the medium added with DMSO only (taken as 100%).

Another series concerns monolayer culture system. Put plainly: Albumin concentration in monolayer culture system (standard of comparison). As to conditions: monolayer culture as standard of comparison (details omitted). Format: cell-based.

In the case of `CCOC(=O)N1c2ccc(C(F)(F)F)cc2[C@@H](N(Cc2cc(C(F)(F)F)cc(C(F)(F)F)c2)C(=O)OC)C[C@H]1CC` [Torcetrapib], in series [1], the “metabolic products separated and detected by LC” value is “Two kinds of metabolic products M2 and M5”.

Take `N[C@@H]1[C@H]2CN(c3nc4c(cc3F)c(=O)c(C(=O)O)cn4-c3ccc(F)cc3F)C[C@@H]12` [Trovafloxacin, trovafloxacin]: the “particle number concentration of the exosomes in the media” value in series [2] is “increase”. Further, the “miR-122 in the collected exosomes” value in series [3] was “detected”. Also, the “albumin concentration in the medium” value in series [4] was “drug concentration-dependent decrease”. In the series with monolayer culture system, the “albumin concentration, monolayer culture system” value is listed as “no decrease”.
